Test results reported in ChEMBL document CHEMBL1124513, “Synthesis and antitumor activity of ribavirin imidates. A new facile synthesis of ribavirin amidine (1-beta-D-ribofuranosyl-1,2,4-triazole-3-carboxamidine hydrochloride)” (J Med Chem, 1989).
Where “and” joins values, the source holds several entries; their conditions need not be identical. Equal entries are not always repeated.

Experiments:
Mus musculus [1] = assay: Post inoculation life span in L1210 leukemic mice treated with 480 mg/kg of compound (qid, day 1); assay type: functional
L1210 [2] = assay: Residual leukemic cell populations after last treatment in L1210 leukemic mice treated with 480 mg/kg of compound (tid, day 1,3,5,7); Toxic; assay type: toxicity, organism-based; design: dose 480 mg/kg; conditions: mouse, in vivo
L1210 [3] = assay: Residual leukemic cell populations after last treatment in L1210 leukemic mice treated with 480 mg/kg of compound (tid, day 1); assay type: functional, Mus musculus
Mus musculus [4] = assay: (§1) Post inoculation life span in L1210 leukemic mice treated with 480 mg/kg of compound (qd, day 1); assay type: functional
Mus musculus [5] = assay: Post inoculation life span in L1210 leukemic mice treated with 480 mg/kg of compound (bid, day 1-7); assay type: functional
Mus musculus [6] = assay: Compound was evaluated for leukemia related splenomegaly in DBA2 mice spleen weight was determined ~ 24 hour after the last treatment at schedule of administration at bid, day 1,3, 5, 7, 9, 11 at a dose 288 mg/kg; assay type: functional
L1210 [7] = assay: Residual leukemic cell populations after last treatment in L1210 leukemic mice treated with 480 mg/kg of compound (bid, day 1,3,5,7); assay type: functional, Mus musculus
L1210 [8] = assay: Residual leukemic cell populations after last treatment in L1210 leukemic mice treated with 480 mg/kg of compound (tid, day 1-7); Toxic; assay type: functional, organism-based; design: dose 480 mg/kg; conditions: Mus musculus
Mus musculus [9] = assay: Post inoculation life span in L1210 leukemic mice treated with 480 mg/kg of compound (tid, day 1); assay type: functional
Mus musculus [10] = assay: (§2) Post inoculation life span in L1210 leukemic mice treated with 480 mg/kg of compound (qd, day 1-7); assay type: functional
L1210 [11] = assay: Residual leukemic cell populations after last treatment in L1210 leukemic mice treated with 480 mg/kg of compound (qd, day 1,3,5,7); assay type: functional, Mus musculus
L1210 [12] = assay: Residual leukemic cell populations after last treatment in L1210 leukemic mice treated with 480 mg/kg of compound (qid, day 1); Toxic; assay type: toxicity, organism-based; design: dose 480 mg/kg; conditions: mouse, in vivo
Mus musculus [13] = assay: Post inoculation life span in L1210 leukemic mice treated with 480 mg/kg of compound (qd, day 1,3,5,7); assay type: functional
L1210 [14] = assay: Residual leukemic cell populations after last treatment in L1210 leukemic mice treated with 480 mg/kg of compound (qd, day 1,4,7); assay type: functional, Mus musculus
L1210 [15] = assay: Residual leukemic cell populations after last treatment in L1210 leukemic mice treated with 480 mg/kg of compound (bid, day 1); assay type: functional, Mus musculus
L1210 [16] = assay: (§3) Residual leukemic cell populations after last treatment in L1210 leukemic mice treated with 480 mg/kg of compound (qd, day 1); assay type: functional, Mus musculus
Mus musculus [17] = assay: Post inoculation life span in L1210 leukemic mice treated with 480 mg/kg of compound (bid, day 1,3,5,7); assay type: functional
Mus musculus [18] = assay: as §2; assay type: functional; remark: listed apart in the source
Mus musculus [19] = assay: Post inoculation life span in L1210 leukemic mice treated with 480 mg/kg of compound (tid, day 1-7); assay type: functional
Mus musculus [20] = assay: Post inoculation life span in L1210 leukemic mice treated with 480 mg/kg of compound (qd, day 1,4,7); assay type: functional
Mus musculus [21] = assay: Compound was evaluated for leukemia related splenomegaly in DBA2 mice spleen weight was determined ~ 24 hour after the last treatment at schedule of administration at bid, day 1,3, 5, 7, 9, 11 at a dose 400 mg/kg; Toxic; assay type: ADME, organism-based; design: dose 400 mg/kg; conditions: in vivo
Mus musculus [22] = assay: as §1; assay type: functional; remark: listed apart in the source
Mus musculus [23] = assay: Compound was evaluated for leukemia related splenomegaly in DBA2 mice spleen weight was determined ~ 24 hour after the last treatment at schedule of administration at qd, day 1,3, 5, 7, 9, 11 at a dose 288 mg/kg; assay type: functional
Mus musculus [24] = assay: Post inoculation life span in L1210 leukemic mice treated with 480 mg/kg of compound (tid, day 1,3,5,7); assay type: functional
L1210 [25] = assay: as §3; assay type: functional, Mus musculus; remark: listed apart in the source
L1210 [26] = assay: Residual leukemic cell populations after last treatment in L1210 leukemic mice treated with 480 mg/kg of compound (bid, day 1-7); Toxic; assay type: toxicity, organism-based; design: dose 480 mg/kg; conditions: mouse, in vivo
Mus musculus [27] = assay: Post inoculation life span in L1210 leukemic mice treated with 480 mg/kg of compound (bid, day 1); assay type: functional
Mus musculus [28] = assay: Compound was evaluated for leukemia related splenomegaly in DBA2 mice spleen weight was determined ~ 24 hour after the last treatment at schedule of administration = qd, day 1,3, 5, 7, 9, 11 at a dose 400 mg/kg; assay type: functional
L1210 [29] = assay: Residual leukemic cell populations after last treatment in L1210 leukemic mice treated with 488 mg/kg of compound (qd, day 1-7); Toxic; assay type: toxicity, organism-based; design: dose 488 mg/kg; conditions: mouse, in vivo
Mus musculus [30] = assay: Post inoculation life span in L1210 leukemic mice treated with 2222 mg/kg of compound (qd, day 1); Tested in 6 mice; assay type: functional
Mus musculus [31] = assay: Post inoculation life span in L1210 leukemic mice treated with 288 mg/kg of compound (qd, day 1-7); Tested in 6 mice; assay type: functional
Mus musculus [32] = assay: Post inoculation life span in L1210 leukemic mice treated with 800 mg/kg of compound (qd, day 1); Tested in 6 mice; assay type: functional
L1210 [33] = assay: Residual leukemic cell populations after last treatment in L1210 leukemic mice treated with 288 mg/kg of compound (qd, day 1-7); assay type: functional, Mus musculus
L1210 [34] = assay: Residual leukemic cell populations after last treatment in L1210 leukemic mice treated with 1333 mg/kg of compound (qd, day 1); assay type: functional, Mus musculus
L1210 [35] = assay: Residual leukemic cell populations after last treatment in L1210 leukemic mice treated with 800 mg/kg of compound (qd, day 1-7); Toxic; assay type: toxicity, organism-based; design: dose 800 mg/kg; conditions: mouse, in vivo
L1210 [36] = assay: Residual leukemic cell populations after last treatment in L1210 leukemic mice treated with 2222 mg/kg of compound (qd, day 1); Toxic; assay type: toxicity, organism-based; design: dose 2222 mg/kg; conditions: mouse, in vivo
Mus musculus [37] = assay: Compound was evaluated for leukemia related splenomegaly in DBA2 mice spleen weight was determined ~ 24 hour after the last treatment at schedule of administration = qd, day 1,3, 5, 7, 9, 11 at a dose 480 mg/kg; assay type: functional
Mus musculus [38] = assay: Post inoculation life span in L1210 leukemic mice treated with 800 mg/kg of compound (qd, day 1-7); Tested in 6 mice; assay type: functional
Mus musculus [39] = assay: Compound was evaluated for leukemia related splenomegaly in DBA2 mice spleen weight was determined ~ 24 hour after the last treatment at schedule of administration = qd, day 1,3, 5, 7, 9, 11 at a dose 1333 mg/kg; Toxic; assay type: ADME, organism-based; design: dose 1333 mg/kg; conditions: in vivo
Mus musculus [40] = assay: Post inoculation life span in L1210 leukemic mice treated with 1333 mg/kg of compound (qd, day 1); assay type: functional
L1210 [41] = assay: Residual leukemic cell populations after last treatment in L1210 leukemic mice treated with 3704 mg/kg of compound (qd, day 1); Toxic; assay type: toxicity, organism-based; design: dose 3704 mg/kg; conditions: mouse, in vivo
L1210 [42] = assay: (§4) Residual leukemic cell populations after last treatment in L1210 leukemic mice treated with 800 mg/kg of compound (qd, day 1); assay type: functional, Mus musculus
Mus musculus [43] = assay: Compound was evaluated for leukemia related splenomegaly in DBA2 mice spleen weight was determined ~ 24 hour after the last treatment at schedule of administration = qd, day 1,3, 5, 7, 9, 11 at a dose 800 mg/kg; Toxic; assay type: ADME, organism-based; design: dose 800 mg/kg; conditions: in vivo
L1210 [44] = assay: as §4; assay type: functional, Mus musculus; remark: listed apart in the source
L1210 [45] = assay: Residual leukemic cell populations after last treatment in L1210 leukemic mice treated with 400 mg/kg of compound (qd, day 1); assay type: functional, Mus musculus
Mus musculus [46] = assay: Post inoculation life span in L1210 leukemic mice treated with 480 mg/kg of compound (qd, day 1-7); Tested in 6 mice; assay type: functional
Mus musculus [47] = assay: Post inoculation life span in L1210 leukemic mice treated with 288 mg/kg of compound (qd, day 1); Tested in 6 mice; assay type: functional
Mus musculus [48] = assay: Post inoculation life span in L1210 leukemic mice treated with 480 mg/kg of compound (qd, day 1); Tested in 6 mice; assay type: functional
L1210 [49] = assay: Residual leukemic cell populations after last treatment in L1210 leukemic mice treated with 288 mg/kg of compound (qd, day 1); assay type: functional, Mus musculus
Mus musculus [50] = assay: Post inoculation life span in L1210 leukemic mice treated with 3704 mg/kg of compound (qd, day 1); Tested in 6 mice; assay type: functional

COC(=N)c1ncn([C@@H]2O[C@H](CO)[C@@H](O)[C@H]2O)n1
T/C (Mus musculus [1]): 60%
Control (L1210 [2]): Toxic
Control (L1210 [3]): 0.6%
T/C (Mus musculus [4]): 114%
T/C (Mus musculus [5]): 101%
Spleen weight (Mus musculus [6]): 150 mg
Control (L1210 [7]): 12%
Control (L1210 [8]): Toxic
T/C (Mus musculus [9]): 153%
T/C (Mus musculus [10]): 142%
Control (L1210 [11]): 46%
Control (L1210 [12]): Toxic
T/C (Mus musculus [13]): 121%
Control (L1210 [14]): 73%
Control (L1210 [15]): 9%
Control (L1210 [16]): 30% and 21%
T/C (Mus musculus [17]): 162%
T/C (Mus musculus [18]): 162% and 97%
T/C (Mus musculus [19]): 61%
T/C (Mus musculus [20]): 119%
Spleen weight (Mus musculus [21]): Toxic
T/C (Mus musculus [22]): 113% and 116%
Spleen weight (Mus musculus [23]): 599 mg
T/C (Mus musculus [24]): 76%
Control (L1210 [25]): 32%
Control (L1210 [26]): Toxic
T/C (Mus musculus [27]): 125%
Spleen weight (Mus musculus [28]): 216 mg

CCOC(=N)c1ncn(C2O[C@H](CO)[C@@H](O)[C@H]2O)n1 (stereo not given in full)
Control (L1210 [29]): Toxic
T/C (Mus musculus [30]): 92%
T/C (Mus musculus [31]): 144%
T/C (Mus musculus [32]): 159% and 144%
Control (L1210 [33]): 27%
Control (L1210 [34]): 1.3%
Control (L1210 [35]): Toxic
Control (L1210 [36]): Toxic
Spleen weight (Mus musculus [37]): 1257 mg
T/C (Mus musculus [38]): 70%
Spleen weight (Mus musculus [39]): Toxic
T/C (Mus musculus [40]): 149%
Control (L1210 [41]): Toxic
Control (L1210 [42]): 1.7%
Spleen weight (Mus musculus [43]): Toxic
Control (L1210 [44]): 0.4%
Control (L1210 [45]): 1.1%
T/C (Mus musculus [46]): 134%
T/C (Mus musculus [47]): 114%
T/C (Mus musculus [48]): 149%
Control (L1210 [49]): 1.7%
T/C (Mus musculus [50]): 48%
